From patent US11746125B2, “Biomimetic peptides derived from biological source and their uses in retarding aging and improving skin” (TCI CO., LTD., priority 2019, dated 2023)

Tested on: human fibroblast cell line (CCD-966SK)
Test: Assay in increasing expression of genes: human fibroblast cells cultured with peptides, RNA detected by nCounter Analysis System
Assay type: cell-based
Experimental: A human fibroblast cell line (CCD-966SK) was used to assay gene expression affected by the peptides of the present disclosure. 1×10^5 of fibroblast cells were seeded and cultured in a 6-well plate containing 2 ml of X-VIVO™ 10 medium. […] The cells cultured with the medium only for 6 or 24 hours were used as control.
The resulting cultured cells were washed with PBS and lysed by adding a lysis reagent. The resulting cell lysis solutions were extracted by RNA Extraction Kit (GENEzol™ 96 Well TriRNA Pure Kit, Geneaid) to collect the RNAs in the cells. The expression of genes was detected by the nCounter Analysis System (NanoString Technologies, Inc.)

[1] = 12.5 μg/ml, 24 hours, vs control
[2] = peptides 12.5 and 25 μg/ml, 6 or 24 hours

## KIFKF [Chiro-5, synthetic 5-mer peptide KIFKF]
[1]
  expression of anti-aging genes (NADSYN, MRPS5, Ub1-5 and/or FOXO): increase
25 μg/ml, vs control
  expression of MMP1: inhibiting
  expression of collagen I gene (COL1A2): increase
[2]
  expression of anti-aging genes (NADSYN, MRPS5, Ub1-5 and/or FOXO): increase
  expression of collagen I gene: increases
  expression of genes relating to collagen breakdown (MMP-1): inhibiting

## PRPIK [Hapa-5, synthetic 5-mer peptide PRPIK]
[1]
  expression of DNA repair genes (ERCC1): increase
  expression of telomerase genes (TERC): increase
25 μg/ml, 24 hours, vs control
  expression of anti-aging genes (Atg1, Ub1-5 and FOXO): increase
  expression of genes relating to collagen breakdown (MMP-1): inhibits
6 hours, vs control
  expression of TIMP1: increases
  expression of collagen IV genes (COL4A1): increases
  expression of elastin genes (ELN): increases
[2]
  expression of DNA repair genes (ERCC1): increase
  expression of TIMP1: increase
  expression of anti-aging genes (Atg1, Ubl-5 and FOXO): increase
  expression of collagen IV gene: increase
  expression of elastin genes: increase
  expression of genes relating to collagen breakdown (MMP-1): inhibits
  expression of moisture-retention related genes (ELG-F and GBA): increase
  expression of telomerase genes (TERC): increase
Vs control, concentration not given
  expressions of moisture-retention related genes (ELG-F and GBA): increase

## QRIKYIKP [Chiro-8, synthetic 8-mer peptide QRIKYIKP]
12.5 μg/ml and 25 μg/ml, 24 hours, vs control
  expression of moisture-retention related genes (SMPD1): increase
[1]
  expression of anti-aging genes (NADSYN, MRPS5, Ub1-5 and/or FOXO): increase
12.5 μg/ml, vs control
  expression of collagen I gene (COLA1): increases
  expression of collagen IV gene (COL4A1): increases
  expression of elastin gene (ELN): increases
24 hours
  expression of anti-inflammatory factor IL-6: inhibits
24 hours, vs control
  expression of MMP1: inhibiting
[2]
  expression of anti-aging genes (NADSYN, MRPS5, Ub1-5 and/or FOXO): increase
  expression of anti-inflammatory factor IL-6: inhibits
  expression of collagen I gene: increases
  expression of elastin genes: increases
  expression of genes relating to collagen breakdown (MMP-1): inhibiting
  expression of moisture-retention related genes (SMPD1): increases

## QKRRTCK [Heter-7, synthetic 7-mer peptide QKRRTCK]
2.5 μg/ml, 12 hours, vs control
  MMP1: inhibiting
12.5 μg/ml, vs control
  expression of collagen I gene: increases
25 μg/ml, 12 hours, vs control
  expression of TIMP1 gene: increases
  expression of anti-aging genes (Atg1 and Ub15): increase
  expression of telomerase gene (TERC): increase
25 μg/ml, vs control
  expression of DNA repair genes (ERCC1 and XRCC5): increase
  expression of anti-oxidation gene SOD2: increase
Peptides 12.5 and 25 μg/ml
  expression of DNA repair genes (ERCC1 and XRCCS): increases
  expression of anti-aging genes (Atg1 and Ubl5): increases
  expression of anti-oxidation gene SOD2: increases
[2]
  expression of TIMP1: increases
  expression of collagen I gene: increases
  expression of genes relating to collagen breakdown (MMP-1): inhibiting
  expression of telomerase genes (TERC): increases

## VKNAKY [Hapa-6, synthetic 6-mer peptide VKNAKY]
12.5 μg/ml, 6 hours, vs control
  expression of anti-aging genes (Atg1, Ub1-5 and FOXO): increase
[1]
  expression of genes relating to collagen breakdown (MMP-1): inhibits
25 μg/ml, vs control
  expressions of moisture-retention related genes (ELG-F and GBA): increase
12.5 and 25 μg/ml, 6 hours, vs control
  expression of DNA repair genes (ERCC1): increase
12.5 and 25 μg/ml, 24 hours, vs control
  expression of telomerase genes (TERC): increase
6 hours, vs control
  expression of TIMP1: increase
  expression of elastin genes (ELN): increase
24 hours, vs control
  expression of collagen I genes (COL1A2): increase
[2]
  expression of DNA repair genes (ERCC1): increase
  expression of TIMP1: increase
  expression of anti-aging genes (Atg1, Ubl-5 and FOXO): increase
  expression of collagen I gene: increase
  expression of elastin genes: increase
  expression of genes relating to collagen breakdown (MMP-1): inhibits
  expression of moisture-retention related genes (ELG-F and GBA): increase
  expression of telomerase genes (TERC): increase

## LKSGR [Latrol-5, synthetic 5-mer peptide LKSGR]
25 μg/ml, 6 hours, vs control
  expression of anti-aging genes (NADSYN, CCT2 and CCT8): increases
  expression of collagen I gene (COL1A2): increases
  expression of genes relating to collagen breakdown (MMP-1): inhibiting
6 hours, vs control
  expression of DNA repair genes (XRCC5 and/or MSH6): increases
24 hours, vs control
  expression of telomerase genes (TERC): increase
[2]
  expression of DNA repair genes (UNG, MSH6, XRCCS and/or MSH6): increase
  expression of anti-aging genes (NADSYN, Atg1, MRPS5, CCT2 and/or CCT8): increase
  expression of telomerase genes (TERC): increase

## TKSGKF [Latrol-6, synthetic 6-mer peptide TKSGKF]
25 μg/ml, 6 hours, vs control
  expression of SMPD1 (moisture-retention related gene) and/or HAS2: increases
25 μg/ml, 24 hours, vs control
  expression of anti-aging genes (NADSYN, Atgl, MRPS5): increases
  expression of collagen I gene (COL1A1): increases
  expression of collagen IV gene (COL4A1): increases
  expression of elastin gene (ELN): increases
6 hours or 24 hours, vs control
  expression of DNA repair genes (UNG and MSH6): increases
6 hours, vs control
  expression of telomerase genes (TERC): increase
[2]
  expression of DNA repair genes (UNG, MSH6, XRCCS and/or MSH6): increase
  expression of SMPD1 (moisture-retention related genes) and/or HSAS2: increases
  expression of anti-aging genes (NADSYN, Atg1, MRPS5, CCT2 and/or CCT8): increase
  expression of collagen I gene: increases
  expression of collagen IV gene: increases
  expression of elastin genes: increases
  expression of genes relating to collagen breakdown (MMP-1): inhibiting
  expression of telomerase genes (TERC): increase
Text summary referring to FIG. 12 (A)
  expression of collagen I gene: increases
